Measured values from patent publication US20260109727A1, “RNA CONSTRUCTS AND USES THEREOF” (BioNTech SE, priority 2022, published 2026).
“Also recorded” adds a separate entry of the source.

How the values were obtained:
[1] = system: BALB/c mice; test: Hematocrit in mice IV injected with 3 μg TransIT-complexed EPO mRNA; assay type: in vivo
Experimental: To confirm in vitro data, female BALB/c mice from Jackson Laboratory (Bar Harbor, ME, USA) at the age of eight to ten weeks were used for in vivo experiment in accordance with federal policies on animal research (Ethics approval number: G18-12-027). Mice (n=3/group) were injected intravenously (i.v.) with 3 μg TransIT-complexed (Mirus Bio) EPO mRNAs in a final volume of 200 μL Dulbecco's modified Eagle medium (DMEM). Mice used as controls were injected with TransIT-reagent diluted in DMEM but without RNA. Mice were injected with EPO mRNA complexed with TransIT-reagent and EPO levels in plasma were measured using ELISA (FIG. 8A). Hematocrit was measured from 18 μl of blood that was collected at the indicated times using centrifugation in Drummond microcaps glass capillary tubes (20 μl volume, Merck, Germany) as described (20) (FIG. 8B). After determination of the hematocrit, capillary tubes were snapped open, and the plasma was collected to measure EPO levels and analyzed for mouse Erythropoietin DuoSet ELISA kit (R&D Systems) according to the manufacturer's instructions. […] EPO RNA containing m1Ψ translated two-fold more than U-containing mRNA at each time points (FIG. 8A). Both compound I′-1 and compound I′-6 are suitable for translation of the encoded protein and each cap analog can be used for synthesizing of non-replicating functional mRNAs (FIG. 8A, 8B).
(§1) In each in vivo experiment in order to measure the translational efficiency and to determine the functionality of EPO mRNA capped with I′-1, I′-2, I′-3, I′-5, I′-6, I′-9, I′-12, I′-13, I′-16, CC114, and CC413 in vivo, female BALB/c mice from Jackson Laboratory (Bar Harbor, ME, USA) at the age of eight to ten weeks were used for in accordance with federal policies on animal research (Ethics approval number: G19-12-074). In each case, mice (n=3/group) were injected intravenously (i.v.) with 3 μg TransIT-complexed (Mirus Bio) EPO mRNAs in a final volume of 200 μL Dulbecco's modified Eagle medium (DMEM). Mice used as controls were injected with TransIT-reagent diluted in DMEM but without RNA. To measure hematocrits and EPO levels in the individual mice that were injected with EPO mRNA capped with I′-6, I′-1, CC114, and CC413 and complexed with TransIT-reagent, 18 μL of blood was collected at the indicated times (FIG. 8B) and centrifuged in Drummond microcaps glass capillary tubes (20 μl volume, Merck, Germany) as described (19). After determination of the hematocrit, capillary tubes were snapped open, and the plasma was collected to measure EPO levels and analyzed for mouse Erythropoietin DuoSet ELISA kit (R&D Systems) according to the manufacturer's instructions. […] EPO RNA containing m1Ψ modifications translated 2-3-fold, 5-fold, and 10-fold more than U-containing mRNAs at 6-24, 48 and 72 hours after injections, respectively. (FIG. 8A). […] To address translation of I′-6-capped mRNA in human primary hepatocytes, EPO level was measured from supernatants transfected using 0.1 μg/well TransIT-formulated I′-6- or CC114-capped uRNA (FIG. 13).

[2] = system: human PBMCs; test: XTT cytotoxicity test of PBMCs transfected with LPX-formulated EPO mRNA; assay type: cell-based; settings: 24 h, up to 1 μg/well mRNA
Experimental: Human buffy coats from healthy individuals were obtained from the Faculty of Medicine of Johannes Gutenberg University, Mainz and used to isolate peripheral blood mononuclear cells (PBMCs) on a Ficoll-Paque™ PLUS (Cytiva, Marlborough, MA, USA) density gradient. In preparation for mRNA transfection, cryopreserved PBMCs were thawed and seeded into 96-well plates at a density of 5×10^5 cells per well in 190 μL RPMI medium supplemented with 1% non-essential amino acids (NEAA), 1% sodium pyruvate and 10% Fetal Bovine Serum (Merck, Germany). Cells were maintained at 37° C. with 5% CO2 until transfection with 0.5, 1.5, 5.0 and 15 μg/ml lipoplex-formulated EPO mRNA (LPX-RNA), as described in Kranz, L. M., et al. (2016) Nature, 534, 396-401. The complexed RNA (10 μl per well) was added in triplicates and supernatants were collected at 24 h after transfection to perform single cell cytotoxicity assay and to measure the cytokine/chemokine profile. […] The levels of IL-6 (Interleukin 6), TNF-α (Tumor necrosis factor alpha), IL-1 (Interleukin 1 beta), IFN-γ (Interferon gamma), MCP-1 (Monocyte Chemoattractant Protein-1), […] (Macrophage inflammatory protein 1 beta) and IL-10 (Interleukin 10) were quantified 24 h after the mRNA transfection. […]

[3] = system: human primary hepatocytes; test: EPO secretion in human primary hepatocytes transfected with TransIT-EPO mRNA (ELISA); assay type: cell-based
Experimental: To measure the translational efficiency of EPO mRNA capped with compound I′-1, compound I′-6, CC114, and CC413 in vitro, human primary hepatocytes were seeded into 96-well plates at a density of 2.5×10^4 cells per well and were transfected with mRNA samples (0.1 μg) complexed with TransIT reagent (Mirus Bio, Madison, WI, USA) in a final volume of 200 μL in InVitroGRO CP Medium (Sigma-Aldrich) supplemented with Thorpedo Antibiotic Mix (Sigma-Aldrich). To quantify EPO levels, the supernatant was collected at 1, 2, 3, 4, 5 and 6 day after transfection and EPO levels were analyzed by mouse Erythropoietin DuoSet ELISA kit (R&D Systems, Minneapolis, MN, USA) according to the manufacturer's instructions.
as §1
To test if various uridine (U) or pseudouridine (Ψ) derivatives of cap analogues can improve translation in human primary hepatocytes, we first measured EPO secretion after application of EPO-encoding Ψ-mRNA capped with compounds described herein analog bearing pseudouridine (I′-3) or CC413 (no modification). […] In addition, all tested modification bearing caps led to increase in EPO secretion at 24 h and 48 h when compared to the unmodified I′-1 (FIG. 16).

COC1C(OP(=O)(O)OC[C@H]2O[C@@H](c3cn(C)c(=O)[nH]c3=O)C(O)C2O)[C@@H](COP(=O)(O)OP(=O)([O-])OP(=O)(O)OC[C@H]2O[C@@H](n3c[n+](C)c4c(O)nc(N)nc43)C(O)C2OC)O[C@H]1n1cnc2c(N)ncnc21 (some centres unmarked) [I′-6, m^7G(^3′-OMe)pppA(2′-OMe)pm^1Ψ]
hematocrit value at 21 days compared with CC413-capped mRNA ([1]; 21 days after administration): at the same level as the values of D7 and D14 | decrease of hematocrit values from D14 ([1]; D14 after injection): not observed | hematocrit values ([1]; up to day 21 after injection): very high and further increased after day 14; also recorded: remained very high level | toxic effect on cell viability (XTT) [2]: no toxic effect | translation (EPO secretion) compared to CC413 ([3]; 0.1 μg/well TransIT-EPO mRNA, 24 hrs): higher translation | EPO secretion, I′-6- vs CC114-capped uRNA ([3]; 0.1 μg/well TransIT-formulated uRNA, 24 h, 48 h and 144 h): Increased secretion of EPO | level of secreted EPO compared to other caps (I′-9, I′-12, I′-16) ([3]; 24 h): increased level | translation compared to CC413 ([3]; m1Ψ-mRNA context): lower translation at later time points but in close to comparable translation
